The target in data set [1] is T1, UGT1A3 (Homo sapiens, UniProt P35503).
T1 construct: purchased BD Gentest Corp. (Woburn, MA, USA); host or cells: baculovirus-infected insect cells
T1 sequence (P35503 29-534): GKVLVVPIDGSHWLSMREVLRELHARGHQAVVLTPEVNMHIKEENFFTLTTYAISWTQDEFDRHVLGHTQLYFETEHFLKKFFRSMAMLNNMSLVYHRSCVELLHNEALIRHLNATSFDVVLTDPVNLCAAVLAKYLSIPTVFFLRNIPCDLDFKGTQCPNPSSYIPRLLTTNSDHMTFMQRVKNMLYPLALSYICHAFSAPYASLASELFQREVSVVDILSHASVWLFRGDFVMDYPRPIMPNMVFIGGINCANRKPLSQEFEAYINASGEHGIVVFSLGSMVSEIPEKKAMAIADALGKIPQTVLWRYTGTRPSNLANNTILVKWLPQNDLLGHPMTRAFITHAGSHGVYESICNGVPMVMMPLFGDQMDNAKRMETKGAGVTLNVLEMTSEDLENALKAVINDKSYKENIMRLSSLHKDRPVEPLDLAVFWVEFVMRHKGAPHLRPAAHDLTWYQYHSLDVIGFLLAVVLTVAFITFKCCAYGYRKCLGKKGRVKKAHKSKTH
As to the kind of experiment: Inhibition of recombinant UGT-catalyzed 4-MU glucuronidation. Type of data set: biochemical. Conditions: for inhibition at 120 min, 100 µM: human, pH 7.4, probe 4-methylumbelliferone (4-MU), 1200 μM, 100 μM compound, 4-MU probe substrate, negative = activation.

Data set [2] deals with T2, UGT1A8 (Homo sapiens, UniProt Q9HAW9).
T2 construct: purchased BD Gentest Corp. (Woburn, MA, USA); host or cells: baculovirus-infected insect cells
T2 sequence (Q9HAW9 26-530): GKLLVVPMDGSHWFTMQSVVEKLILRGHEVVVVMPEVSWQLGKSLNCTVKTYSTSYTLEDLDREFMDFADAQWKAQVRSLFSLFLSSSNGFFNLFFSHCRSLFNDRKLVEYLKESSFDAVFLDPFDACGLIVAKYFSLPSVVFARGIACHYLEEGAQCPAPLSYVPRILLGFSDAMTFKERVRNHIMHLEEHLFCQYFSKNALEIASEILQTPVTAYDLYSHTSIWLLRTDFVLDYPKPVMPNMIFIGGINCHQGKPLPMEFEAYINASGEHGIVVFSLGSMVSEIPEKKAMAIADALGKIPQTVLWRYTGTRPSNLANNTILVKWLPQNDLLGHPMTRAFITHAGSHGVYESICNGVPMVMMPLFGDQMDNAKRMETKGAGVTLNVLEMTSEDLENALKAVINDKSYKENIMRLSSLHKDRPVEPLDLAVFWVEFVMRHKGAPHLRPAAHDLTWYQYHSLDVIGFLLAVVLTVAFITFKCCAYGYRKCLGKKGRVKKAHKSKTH
The description is as above. Conditions: pH 7.4, probe 4-methylumbelliferone (4-MU), 750 μM, 100 μM compound, 4-MU probe substrate, negative = activation. Type of data set: biochemical.

Usually inhibition stands for the change of the read-out against control, counted positive when it falls. For `O=c1c2cc(O)c(O)cc2oc2cc(O)c([C@@H]3O[C@H](CO)[C@@H](O)[C@H](O)[C@H]3O)c(O)c12` [MGF, 1,3,6,7-tetrahydroxyxanthone-C-2-β-D-glucoside], the inhibition at 120 min, 100 µM in data set [1] was -16%. For the same molecule, the inhibition at 30 min, 100 µM in data set [2] is -70.9%.
By IC50 is commonly meant the midpoint of a concentration-inhibition curve. In general, Ki refers to the dissociation constant of the complex between target and ligand, obtained from inhibition or displacement. Consider `O=c1c2cc(O)c(O)cc2oc2cc(O)cc(O)c12` [NTR, 1,3,6,7-tetrahydroxyxanthone], for which the IC50 in data set [1] (4-MU glucuronidation, Probit analysis, read-out: IC50 towards UGT1A3) was 8.2 µM. For the same molecule, the “inhibition type towards UGT1A3” value in data set [1] (Dixon plot and Lineweaver-Burk plot) was “competitively inhibited”. Moreover, the inhibition at 120 min, 100 µM in data set [1] is 87.6%. The Ki in data set [1] (second plot of Lineweaver-Burk slopes, read-out: inhibition constant (Ki) towards UGT1A3) came to 1600 nM. Moreover, the inhibition at 30 min, 100 µM in data set [2] was 57%.

Source of the values: PMC6152678, “In Vitro Comparative Study of the Inhibitory Effects of Mangiferin and Its Aglycone Norathyriol towards UDP-Glucuronosyl Transferase (UGT) Isoforms” (Molecules : A Journal of Synthetic Chemistry and Natural …, 2017).
